The assay is filed under the species Cavia porcellus. Kind of assay: Antioxidative activity was evaluated by using the lipid peroxidation of guinea pig liver microsomes. It is filed as functional.
With `COc1c2c(cc(O)c1-c1ccc(-c3ccccc3)cc1)OCO2`, the concentration for half-maximal inhibition (IC50) turned out to be 107 µM.

With `COc1c2c(cc(O)c1-c1ccc(C)cc1)OCO2`, inhibition was half-maximal at 65 µM (IC50).

As to `COc1c2c(cc(O)c1-c1cc3ccccc3o1)OCO2`, the IC50 was found to be 98 µM.

In turn, `COc1ccc(-c2c(O)cc3c(c2OC)OCO3)cc1` registered an IC50 of 56 µM.

Regarding `COc1c2c(cc(O)c1-c1cccs1)OCO2`, the half-maximal inhibitory concentration (IC50) came out at 44 µM.

`COc1c2c(cc(O)c1-c1ccccc1)OCO2`: the IC50 was 83 µM. Compared with the last compound, the IC50 is about 1.9-fold higher.

On to `Cc1c(C)c2c(c(C)c1O)CC[C@@](C)(CCC[C@H](C)CCC[C@H](C)CCCC(C)C)O2` [ALPHA-TOCOPHEROL], for which half-maximal inhibition (IC50) was put at 280 µM.

For `CCCOC(=O)c1cc(O)c(O)c(O)c1` [PROPYL GALLATE], the IC50 was determined as 50 µM.

Values taken from ChEMBL document CHEMBL1132086, “Total synthesis of an antioxidant isolated from yeast via palladium-catalyzed coupling and its application for related compounds” (Bioorg Med Chem Lett, 1999).
